From publication PMC7772748 (Amino acids, 2020)
Where no end group is shown, it is not given here.

Columns and labels:
3T3L1 mature adipocytes = experiment: CXCL1 release from differentiated 3T3L1 white adipocytes; format: cell-based, mouse; conditions: 10 nM CRF alone, 24 h, differentiated white 3T3L1 adipocytes, ELISA
RAW 264.7 cells = experiment: Proliferation assay; format: cell-based; conditions: 1 μM, third day of culture (72 h), MTT; n = 3 experiments
[1] = system: CRF(1–16)/R1ΔN chimera of CRF1R (HEK 293 cells, transient expression); conditions: ref Nielsen et al. 2000; cited from earlier work

| Molecule | production of CXCL1 compared to untreated (control) cells (3T3L1 mature adipocytes) | proliferation rate of RAW 264.7 cells compared to vehicle-treated cells (RAW 264.7 cells) | block of the constitutive activity (activation) of the CRF(1–16)/R1ΔN chimera [1] |
| --- | --- | --- | --- |
| corticotropin-releasing factor (SEEPPISLDLTFHLLREVLEMARAEQLAQQAHSNRKLMEII; ends and bridges not checked; UniProt P06850 154-194, looked up) [CRF] | significantly reduced |  |  |
| astressin |  | levels similar to those achieved with astressin | not blocked |
| CCCCN(CC)c1nc(C)nc2c1c(C)c(C)n2-c1c(C)cc(C)cc1C [antalarmin] |  |  | blocked |
